Results taken from patent US20250353873A1, “COMPOUNDS AND METHODS FOR MODULATING APOE EXPRESSION” (Ionis Pharmaceuticals, Inc., priority 2024, published 2025).
Strand notation (5' to 3'): a small letter for the sugar, then the base; units joined by * are phosphorothioate-linked, units joined directly phosphodiester-linked; [ ] holds rarer units or linkages, { } end groups; capitals alone tell only the bases. [ms] = mesyl phosphoramidate linkage; e = 2'-O-(2-methoxyethyl) (MOE); [5mC] = 5-methylcytosine; d = 2'-deoxy (DNA)

How the values were obtained:
human APOE RNA [1] = test: Activity in APOE 1549 knock-in mice, single ICV bolus, 4 weeks (Example 8); assay type: in vivo; settings: n = 2, single ICV bolus of 300 μg, four weeks post treatment, Table 18
Protocol: Modified oligonucleotides described above were tested in the 1549 APOE knock-in mouse model described above.
APOE knock-in mice were divided into groups of either 2 or 6 mice each as described in the tables below. Each mouse received a single intracerebroventricular (ICV) bolus of 300 μg of modified oligonucleotide. A group of either 3 or 6 mice received a single ICV bolus with PBS as a negative control.
Four weeks post treatment, mice were sacrificed and RNA was extracted from cortical brain tissue and spinal cord for quantitative real-time RT-PCR analysis of RNA expression of APOE using primer probe set RTS3073 (described herein above). APOE RNA levels were normalized to mouse Ppia. Mouse Ppia was amplified using primer probe set m_cyclo24 (described herein above). Results are presented as percent human APOE RNA relative to the amount of human APOE RNA in PBS treated animals, (% control). Each experiment is identified in separate tables below.

human APOE RNA [2] = test: Dose-dependent inhibition of human APOE RNA in HepG2 cells, electroporation, 24 hours (Example 6); assay type: cell-based
Method in brief: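 HepG2 cells, 50,000 per well, electroporated with various oligonucleotide concentrations. APOE RNA measured with primer probe set RTS3073, normalized to GAPDH (RTS104), expressed as % of untreated control; IC50 then calculated.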

human APOE RNA [3] = test: Activity in APOE C57BL/6NTac-Apoeem7250 knock-in mice, single ICV bolus, 20 weeks (Example 13); assay type: in vivo; settings: single ICV bolus 300 μg, 20 weeks post treatment, normalized to mouse Ppia
Method in brief: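 Knock-in mice (n=4) given a single ICV bolus of 300 μg oligonucleotide, PBS as control. After 20 weeks, human APOE RNA in cortex and spinal cord measured by RT-qPCR, normalized to mouse Ppia, expressed as % of PBS-treated animals.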

human APOE RNA [4] = test: Activity in APOE 1549 knock-in mice, single ICV bolus, 2 weeks (Example 7); assay type: in vivo; settings: single ICV bolus of 300 μg, two weeks post treatment, Table 16
Protocol: Modified oligonucleotides described above were tested in APOE knock-in mice.
APOE knock-in mice (model 41549) were obtained from Taconic Biosciences. APOE knock-in mice were divided into groups of 2 mice each. Each mouse received a single intracerebroventricular (ICV) bolus of 300 μg of modified oligonucleotide. A group of 4 mice received a single ICV bolus with PBS as a negative control.
Two weeks post treatment, mice were sacrificed and RNA was extracted from cortical brain tissue and spinal cord for quantitative real-time RT-PCR analysis of RNA expression of APOE using primer probe set RTS3073 (described herein above). APOE RNA levels were normalized to mouse Ppia. Mouse Ppia was amplified using primer probe set m_cyclo24 (forward sequence TCGCCGCTTGCTGCA, designated herein as SEQ ID NO: 16; reverse sequence ATCGGCCGTGATGTCGA, designated herein as SEQ ID NO: 17; probe sequence […], designated herein as SEQ ID NO: 18). Results are presented as percent human APOE RNA relative to the amount of human APOE RNA in PBS treated animals, (% control). Each experiment is identified in separate tables below.

Row | Substance | APOE RNA (% control) Cortex (human APOE RNA [1]) [% control] | APOE RNA (% control) Spinal Cord (human APOE RNA [1]) [% control] | IC50 (human APOE RNA [2]) [µM] | APOE RNA (% UTC) (human APOE RNA [2]; 5 nM) | APOE RNA (% UTC) (human APOE RNA [2]; 13 nM) | APOE RNA (% UTC) (human APOE RNA [2]; 33 nM) | APOE RNA (% UTC) (human APOE RNA [2]; 82 nM) | APOE RNA (% UTC) (human APOE RNA [2]; 205 nM) | APOE RNA (% UTC) (human APOE RNA [2]; 512 nM) | APOE RNA (% UTC) (human APOE RNA [2]; 1,280 nM) | APOE RNA (% UTC) (human APOE RNA [2]; 3,200 nM) | APOE RNA (% UTC) (human APOE RNA [2]; 8,000 nM) | APOE RNA (% UTC) (human APOE RNA [2]; 20,000 nM) | APOE RNA (% control) Cortex (human APOE RNA [3]) [% control] | APOE RNA (% control) Spinal Cord (human APOE RNA [3]) [% control] | APOE RNA (% control) Cortex (human APOE RNA [4]) [% control] | APOE RNA (% control) Spinal Cord (human APOE RNA [4]) [% control]
1 | 1736522: 6-10-4 MOE gapmer CTTGGTGAATCTTTATTAAA, linkages sooosszzssssssssoss (e[5mC]*eTeTeGeG*eT*dG[ms]dA[ms]dA*dT*d[5mC]*dT*dT*dT*dA*dT*eTeA*eA*eA) [compound 1736522] | 41 | 39 | 1.38 | 110 | 88 | 90 | 82 | 67 | 59 | 45 | 41 | 18 | 43 | 64 | 56 |  | 
2 | 1736520: 6-10-4 MOE gapmer CTTGGTGAATCTTTATTAAA, linkages sossoszzzssssssssss (e[5mC]*eTeT*eG*eGeT*dG[ms]dA[ms]dA[ms]dT*d[5mC]*dT*dT*dT*dA*dT*eT*eA*eA*eA) [compound 1736520] | 41 | 32 | 0.57 | 109 | 87 | 92 | 72 | 62 | 34 | 28 | 11 | 11 | 83 | 65 | 62 |  | 
3 | 1601944: 6-10-4 MOE gapmer CTGGTCTTCTCTTATCTCCC, linkages sooooossssssssssoss (antisense e[5mC]*eTeGeGeTe[5mC]dT*dT*d[5mC]*dT*d[5mC]*dT*dT*dA*dT*d[5mC]*eTe[5mC]*e[5mC]*e[5mC]) [compound 1601944] |  |  |  |  |  |  |  |  |  |  |  |  |  |  |  | 109 | 95
4 | 1601948: 6-10-4 MOE gapmer GTTCAAATTCCATCCCCCCA, linkages sooooossssssssssoss (antisense eG*eTeTe[5mC]eAeAdA*dT*dT*d[5mC]*d[5mC]*dA*dT*d[5mC]*d[5mC]*d[5mC]*e[5mC]e[5mC]*e[5mC]*eA) [compound 1601948] |  |  |  |  |  |  |  |  |  |  |  |  |  |  |  | 112 | 105
5 | 1736524: 6-10-4 MOE gapmer CTTGGTGAATCTTTATTAAA, linkages sssooozzssssssssoss (e[5mC]*eT*eT*eGeGeTdG[ms]dA[ms]dA*dT*d[5mC]*dT*dT*dT*dA*dT*eTeA*eA*eA) [compound 1736524] | 36 | 31 | 1.09 | 97 | 101 | 89 | 91 | 66 | 66 | 39 | 34 | 28 | 17 | 67 | 62 |  | 
6 | 1601956: 6-10-4 MOE gapmer AAGTTCTCCAATCGACGGCT, linkages sooooossssssssssoss (antisense eA*eAeGeTeTe[5mC]dT*d[5mC]*d[5mC]*dA*dA*dT*d[5mC]*dG*dA*d[5mC]*eGeG*e[5mC]*eT) [compound 1601956] |  |  |  |  |  |  |  |  |  |  |  |  |  |  |  | 104 | 107
